According to patent US20190167676A1, “METHODS FOR IMPROVING RESISTANCE TO SKELETAL MUSCLE FATIGUE” (Cytokinetics, Inc., priority 2012, published 2019):

Assays:
[1] = tested on: skinned human vastus lateralis fast fibers; details: skinned fast fibers from muscle biopsies; cited from earlier work
[2] = tested on: patients with peripheral artery disease and claudication; assay: Bilateral heel raise test, Phase II study; format: in vivo, human
Experimental: (§1) This study was a double-blind, randomized, placebo-controlled, three-period cross-over, hypothesis generating Phase II study in patients with peripheral artery disease and claudication. […] Secondary objectives included (a) evaluation and characterization of the relationship, if any, between the doses and plasma concentrations of Compound A and its pharmacodynamic effects, and (b) evaluation of the safety and tolerability of Compound A administered as single doses.
Single doses of each of 375 mg Compound A, 750 mg Compound A and placebo were administered in random order with a 6 to 10 day wash out between each dose. […] Results were analyzed using a repeated-measures ANCOVA with treatment, sequence, period, baseline, and patient in the model. […]
In the bilateral heel raise test, the lateral aspect of the ankle on the dominant leg was instrumented with an electromechanical goniometer connected to a PC-based data collection system to monitor and record ankle angle position and range of motion (Noraxon U.S.A., Inc., Scottsdale, Ariz.). […] The total number of heel raises, time, and a calculated index of work performed were assessed from the beginning of test to the onset of claudication and to maximal exercise. An index of work performed was calculated as follows: Heel Raise Work Index (HRWI)=(sinθ°*foot length)*body mass.

[3] = tested on: patients with peripheral artery disease and claudication; assay: 6-Minute Walk Test, Phase II study; format: in vivo, human; details: single doses 375, 500, 750 mg; 4 hours after dosing
Description: as §1
Assessments include 1) Bilateral Heel Raise Test (as described below) using electrogoniometry at 3 and 6 hours after dosing, and 2) 6-Minute Walk Test at 4 hours after dosing. Results were analyzed using a repeated-measures ANCOVA with treatment, sequence, period, baseline, and patient in the model. In the event of model assumption violations, non-parametric methods were utilized

rat EDL muscle [4] = assay: Fatigue in rat EDL muscle following femoral artery ligation (FAL); format: in vivo; details: for average stimulation frequency for force production similar to pre-dose: vehicle 30 Hz
Description: Rats were placed under anesthesia using isoflurane and the skin around the experimental leg was removed. The distal end of the EDL muscle and its associated tendon were then isolated. The rat was then placed on the platform of an Aurora in-situ muscle analysis rig (806C), maintained at body temperature via a circulating water system. The knee was immobilized in a clamp between two sharpened screws and the distal tendon cut and tied to the arm of a force transducer (Aurora Scientific, Ontario, Canada) using a silk suture. The muscle was stimulated directly via the peroneal nerve. For isolation of the nerve, a 1 cm incision was made at the upper thigh and the overlying gastrocnemius muscle was cut to expose an approximate 5 mm stretch of the peroneal nerve. This was then dissected free of surrounding connective tissue and a pair of stainless steel needle electrodes (0.10 mm) were hooked around the exposed nerve. Muscle contractile properties were assessed by applying an electrical current to the nerve and recording the force generated by the muscle via a servomotor. The muscle length was adjusted to produce the maximum isometric force (Lo) after sub-maximal stimulation (30 Hz, 1 ms pulses, 350 ms train duration). Once Lo had been established, the nerve was stimulated every 2 minutes with a 30 Hz train (1 ms stimuli, 350 ms duration) for the course of the experiment. This preparation was stable for 4-6 hours.
With the rat in situ EDL muscle preparation described in Example 3, a fatiguing protocol was utilized where muscle was stimulated for 600 seconds. Vehicle-treated muscle was electrically stimulated at 30 Hz while the stimulation frequency was reduced in Compound A treated rats to ensure similar force production to pre-dose levels, prior to femoral artery ligation (average stimulation frequency of 29 and 26Hz, for 0.5 mg/kg and 1 mg/kg Compound A, respectively). This protocol produced a robust and reproducible fatigue in EDL muscle following femoral artery ligation, with a transient increase to 136.0±6.8% of initial force over the first 90-100 seconds, followed by a rapid drop in force before stabilization at approximately 40% of initial force. The initial rise in tension is believed to be due to Pi-induced increases in free intracellular Ca^2+ due to inhibition of sarco(endo)plasmic reticulum Ca^2+-ATPases (SERCAs) pumping into the SR (Allen, Physiol Rev 88:287-332, 2008). Following ligation of the femoral artery (R. A. Challiss et al. Biochem J. 1986 Dec. 1; 240(2):395-401) Compound A was administered in solution (50% PEG300/10% EtOH/40% Cavitron formulation) via a jugular vein catheter as a single slow bolus over a 2 min period.
Time for force to decrease to 50% of initial force was lengthened from 259±30 seconds to […] (P<0.0001, T-test).

rat EDL muscle [5] = assay: Isometric tension and relaxation time in rat EDL muscle in situ; format: in vivo
Experimental: As with the in vitro FDB muscle studies, another predominately fast muscle fiber type, the extensor digitorum long us (EDL), was stimulated toward contractions in unconscious rats in situ. In these isometric muscle studies (measuring force at fixed length), force, time to peak contraction, time to half relaxation after cessation of stimulation (RT1/2) and baseline tension were determined. These studies have the advantage that the nerve and muscle pair were intact and had typical blood flow to the muscle under investigation.
Rats were placed under anesthesia using isoflurane and the skin around the experimental leg was removed. The distal end of the EDL muscle and its associated tendon were then isolated. The rat was then placed on the platform of an Aurora in-situ muscle analysis rig (806C), maintained at body temperature via a circulating water system. The knee was immobilized in a clamp between two sharpened screws and the distal tendon cut and tied to the arm of a force transducer (Aurora Scientific, Ontario, Canada) using a silk suture. The muscle was stimulated directly via the peroneal nerve. […] Muscle contractile properties were assessed by applying an electrical current to the nerve and recording the force generated by the muscle via a servomotor. […]

In the case of `C#Cc1cnc2nc(O)n(C(CC)CC)c2n1` [Compound A, 6-ethynyl-1-(pentan-3-yl)-1H-imidazo[4,5-b]pyrazin-2-ol], the force-calcium relationship [1] is given as “dramatically left-shifts”, the “relationship between plasma concentrations and outcomes in the Heel Raise Test” value ([2]; PK/PD analysis, FIG. 14) is given as “strong positive relationship” and the “calf muscle performance by heel raise testing” value ([2]; single doses 375, 500, 750 mg, 3 and 6 hours after dosing) is given as “increased calf muscle performance”. The “distance traversed during 6-Minute Walk Test” value [3] was “dose and concentration dependent decrease”, the “average stimulation frequency for force production similar to pre-dose” value (rat EDL muscle [4]; 0.5 mg/kg) was 29 Hz and the “average stimulation frequency for force production similar to pre-dose” value (rat EDL muscle [4]; 1 mg/kg) was 26 Hz. The “time of rise to initial increase in force” value (rat EDL muscle [4]; FAL rats) was 160 to 170 s, the “time to fatigue and tension-generating capacity” value (rat EDL muscle [4]; FAL rats vs vehicle, FIG. 5) was “dose-dependent increase” and the “initial increase in force” value (rat EDL muscle [4]; FAL rats, jugular vein bolus) was 156.3±10.4 % of initial force. The “time for force to decrease to 50% of initial force” value (rat EDL muscle [4]; FAL rats, vehicle 259±30) was 752 ± 64 s, the “increase in relaxation time” value (rat EDL muscle [5]; 10 mg/kg) was “approximately 3.5 fold” and the “sub-maximal and maximal force in situ” value (rat EDL muscle [5]; femoral artery catheter, dose escalation up to 10 mg/Kg) was “increase in sub-maximal force without increasing maximal force”.
